Source: patent US20200069648A1, “HALOALLYLAMINE PYRAZOLE DERIVATIVE INHIBITORS OF LYSYL OXIDASES AND USES THEREOF” (Pharmaxis Ltd., priority 2017, published 2020)
Structures can show the parent of a compound that is named as a salt.

How the values were obtained:
[1] = target: T1, human recombinant SSAO/VAP-1 (Homo sapiens, UniProt Q16853); test: Human recombinant SSAO/VAP-1 amine oxidase inhibition; assay type: biochemical; details: 30 min preincubation at 37° C., 600 μM benzylamine
T1 construct: a cloned cDNA template corresponding to residues 34-763 of human SSAO/VAP-1; TEV cleavage site (N); made in house
T1 sequence (Q16853 34-763): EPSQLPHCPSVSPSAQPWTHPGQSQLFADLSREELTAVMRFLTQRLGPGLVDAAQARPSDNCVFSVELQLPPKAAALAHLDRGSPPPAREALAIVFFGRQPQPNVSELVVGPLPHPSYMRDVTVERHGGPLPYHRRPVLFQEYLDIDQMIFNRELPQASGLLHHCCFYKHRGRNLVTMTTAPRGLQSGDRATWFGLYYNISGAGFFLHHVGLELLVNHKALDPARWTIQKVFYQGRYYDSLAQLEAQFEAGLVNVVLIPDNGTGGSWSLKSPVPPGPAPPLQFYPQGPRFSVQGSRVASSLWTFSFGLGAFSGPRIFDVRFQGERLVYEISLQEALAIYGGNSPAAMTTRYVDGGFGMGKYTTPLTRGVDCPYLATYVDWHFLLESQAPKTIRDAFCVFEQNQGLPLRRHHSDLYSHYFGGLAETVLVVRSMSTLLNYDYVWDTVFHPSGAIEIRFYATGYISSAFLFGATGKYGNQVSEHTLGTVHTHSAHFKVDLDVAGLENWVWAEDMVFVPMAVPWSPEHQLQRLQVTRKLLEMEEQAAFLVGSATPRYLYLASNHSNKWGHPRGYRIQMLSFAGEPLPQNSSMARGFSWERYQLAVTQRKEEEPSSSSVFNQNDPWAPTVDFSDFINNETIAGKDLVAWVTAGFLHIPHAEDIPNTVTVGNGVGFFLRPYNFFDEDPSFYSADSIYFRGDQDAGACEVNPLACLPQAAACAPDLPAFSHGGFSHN
Method: Method to Determine the Ability of Compounds of Formula I to Inhibit Human Recombinant SSAO/VAP-1
Human recombinant SSAO/VAP-1 amine oxidase activity was determined using the coupled colorimetric method as described for monoamine oxidase, copper-containing amine oxidases and related enzymes (Holt A. and Palcic M., A peroxidase-coupled continuous absorbance plate-reader assay for flavin monoamine oxidases, copper-containing amine oxidases and related enzymes. Nat Protoc 2006; 1: 2498-2505). Briefly, a cloned cDNA template corresponding to residues 34-763 of human SSAO/VAP-1, and incorporating a mouse Ig kappa (κ) signal sequence, N-terminal flag epitope tag and tobacco etch virus (TEV) cleavage site, was assembled in a mammalian expression vector (pLO-CMV) by Geneart AG. This vector containing human SSAO/VAP-1 residues was transfected into CHO-K1 glycosylation mutant cell line, Lec 8. A clone stably expressing human SSAO/VAP-1 was isolated and cultured in large scale. Active human SSAO/VAP-I was purified and recovered using immunoaffinity chromatography. This was used as the source for SSAO/VAP-1 activity. A high-throughput colorimetric assay was developed using either 96 or 384 well format. Briefly, in a standard 96 well plate assay 50 μL of purified human SSAO/VAP-1 (0.25 μg/mL) in 0.1 M sodium phosphate buffer (pH 7.4) was added into each well. Test compounds were dissolved in DMSO and tested in a Concentration Response Curve (CRC) with 4-11 data points, typically in the micromolar or nanomolar range after incubation with human SSAO/VAP-1 for 30 min at 37° C. After 30 min incubation, 50 μL of the reaction mixture containing 600 μM benzylamine (Sigma Aldrich), 120 μM Amplex Red (Sigma Aldrich) and 1.5 U/mL horseradish peroxidase (Sigma Aldrich) prepared in 0.1 M sodium phosphate buffer (pH 7.4) were added to the corresponding well. The fluorescence unit (RFU) was read every 2.5 min for 30 min at 37° C. excitation 565 nm and emission 590 (Optima; BMG labtech). The slope of the kinetics for each well was calculated using MARS data analysis software (BMG labtech) and this value was used to deduce the IC50 value (Dotmatics).

[2] = target: T2, Recombinant human MAO-B (Homo sapiens, UniProt P27338); test: Human recombinant MAO-B inhibition; assay type: biochemical; details: benzylamine 100 μM
T2 construct: purchased Sigma Aldrich
T2 sequence (P27338 1-520): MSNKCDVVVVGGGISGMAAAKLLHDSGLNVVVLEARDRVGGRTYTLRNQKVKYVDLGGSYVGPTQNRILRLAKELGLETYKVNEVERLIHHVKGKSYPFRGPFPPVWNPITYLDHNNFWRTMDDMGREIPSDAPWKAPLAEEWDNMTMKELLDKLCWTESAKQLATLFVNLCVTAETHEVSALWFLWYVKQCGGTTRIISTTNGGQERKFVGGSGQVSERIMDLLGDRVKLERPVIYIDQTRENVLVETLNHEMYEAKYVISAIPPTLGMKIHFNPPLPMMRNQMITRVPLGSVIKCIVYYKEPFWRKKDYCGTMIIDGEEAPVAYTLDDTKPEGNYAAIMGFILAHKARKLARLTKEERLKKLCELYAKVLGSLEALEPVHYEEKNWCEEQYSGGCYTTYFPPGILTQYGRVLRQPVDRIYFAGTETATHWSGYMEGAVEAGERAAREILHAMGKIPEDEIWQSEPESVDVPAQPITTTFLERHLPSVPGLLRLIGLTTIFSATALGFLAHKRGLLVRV
Method: Method to Determine the Ability of Compounds of Formula I to Inhibit Human Recombinant MAO-B
The specificity of the compounds of this invention was tested by determining their ability to inhibit MAO-B activities in vitro. Recombinant human MAO-B (0.06 mg/mL; Sigma Aldrich) was used as source of MAO-B enzyme activities. The assay was performed in a similar way as for human SSAO/VAP-1 (Example 46) except, the substrate benzylamine was used at 100 μM.

Structure (SMILES)	IC50 [1] [µM]	IC50 [2] [µM]
Cc1nn(C/C(F)=C/CN)c(C)c1Cc1ccc(S(=O)(=O)N2CCOCC2)cc1 [Compound 6, (Z)-4-(3,5-dimethyl-4-(4-(morpholinosulfonyl)benzyl)-1H-pyrazol-1-yl)-3-fluorobut-2-en-1-amine hydrochloride]	> 30	> 30
Cc1nn(C/C(F)=C/CN)c(C)c1Cc1ccc(S(=O)(=O)N2CCCC2)cc1 [Compound 7, (Z)-4-(3,5-dimethyl-4-(4-(pyrrolidin-1-ylsulfonyl)benzyl)-1H-pyrazol-1-yl)-3-fluorobut-2-en-1-amine hydrochloride]	> 10	> 30
Cc1nn(C/C(F)=C/CN)c(C)c1Cc1ccc(S(=O)(=O)N(C)C(C)C)cc1 [Compound 8, (Z)-4-((1-(4-amino-2-fluorobut-2-en-1-yl)-3,5-dimethyl-1H-pyrazol-4-yl)methyl)-N-isopropyl-N-methylbenzenesulfonamide hydrochloride]	> 10	> 30
Cc1nn(C/C(F)=C/CN)c(C)c1Cc1ccc(S(=O)(=O)N(C)C)c2ccccc12 [Compound 9, (Z)-4-((1-(4-amino-2-fluorobut-2-en-1-yl)-3,5-dimethyl-1H-pyrazol-4-yl)methyl)-N,N-dimethyl naphthalene-1-sulfonamide hydrochloride]	> 10	> 10
Cc1nn(Cc2ccc(S(=O)(=O)N(C)C)cc2)c(C)c1C/C(F)=C/CN [Compound 10, (Z)-4-((4-(4-amino-2-fluorobut-2-en-1-yl)-3,5-dimethyl-1H-pyrazol-1-yl)methyl)-N,N-dimethylbenzenesulfonamide hydrochloride]	< 10	> 10
Cc1nn(C/C(F)=C/CN)c(C)c1Cc1ccc(S(=O)(=O)NC(C)C)cc1 [Compound 11, (Z)-4-((1-(4-amino-2-fluorobut-2-en-1-yl)-3,5-dimethyl-1H-pyrazol-4-yl)methyl)-N-isopropyl benzenesulfonamide hydrochloride]	< 10	> 30
Cc1nn(C/C(F)=C/CN)c(C)c1Cc1ccc(S(C)(=O)=O)cc1Cl [Compound 12, (Z)-4-(4-(2-chloro-4-(methylsulfonyl)benzyl)-3,5-dimethyl-1H-pyrazol-1-yl)-3-fluorobut-2-en-1-amine hydrochloride]	< 10	> 30
CCc1nn(C/C(F)=C/CN)c(CC)c1Cc1ccc(S(=O)(=O)N(C)C)cc1 [Compound 13, (Z)-4-((1-(4-amino-2-fluorobut-2-en-1-yl)-3,5-diethyl-1H-pyrazol-4-yl)methyl)-N,N-dimethyl benzenesulfonamide hydrochloride]	> 30	> 30
Cc1nn(C/C(F)=C/CN)c(C)c1Cc1ccc(C(=O)N(C)C)cc1 [Compound 14, (Z)-4-((1-(4-amino-2-fluorobut-2-en-1-yl)-3,5-dimethyl-1H-pyrazol-4-yl)methyl)-N,N-dimethylbenzamide hydrochloride]	> 30	> 30
Cc1nn(C/C(F)=C/CN)c(C)c1Cc1ccc(S(C)(=O)=O)c(Cl)c1 [Compound 16, (Z)-4-(4-(3-chloro-4-(methylsulfonyl)benzyl)-3,5-dimethyl-1H-pyrazol-1-yl)-3-fluorobut-2-en-1-amine hydrochloride]	> 10	> 30
Cc1nn(C/C(F)=C/CN)c(C)c1Cc1ccc(S(=O)(=O)N(C)C)c(OC(F)(F)F)c1 [Compound 17, (Z)-4-((1-(4-amino-2-fluorobut-2-en-1-yl)-3,5-dimethyl-1H-pyrazol-4-yl)methyl)-N,N-dimethyl-2-(trifluoromethoxy)benzenesulfonamide hydrochloride]	> 10	> 30
Cc1nn(C/C(F)=C/CN)c(C)c1Cc1ccc(S(=O)(=O)N(C)C)c(C(F)(F)F)c1 [Compound 18, (Z)-4-((1-(4-amino-2-fluorobut-2-en-1-yl)-3,5-dimethyl-1H-pyrazol-4-yl)methyl)-N,N-dimethyl-2-(trifluoromethyl)benzenesulfonamide hydrochloride]	> 30	> 30
Cc1nn(C/C(F)=C/CN)c(C)c1Cc1cc(F)c(S(=O)(=O)N(C)C)cc1F [Compound 19, (Z)-4-((1-(4-amino-2-fluorobut-2-en-1-yl)-3,5-dimethyl-1H-pyrazol-4-yl)methyl)-2,5-difluoro-N,N-dimethylbenzenesulfonamide hydrochloride]	> 30	> 30
CNS(=O)(=O)c1ccc(Cn2nc(C)c(C/C(F)=C/CN)c2C)c(Cl)c1 [Compound 20, (Z)-4-((4-(4-amino-2-fluorobut-2-en-1-yl)-3,5-dimethyl-1H-pyrazol-1-yl)methyl)-3-chloro-N-methylbenzenesulfonamide hydrochloride]	< 10	> 30
Cc1nn(Cc2ccc(S(C)(=O)=O)cc2Cl)c(C)c1C/C(F)=C/CN [Compound 21, (Z)-4-(1-(2-chloro-4-(methylsulfonyl)benzyl)-3,5-dimethyl-1H-pyrazol-4-yl)-3-fluorobut-2-en-1-amine hydrochloride]	< 10	> 30
CNS(=O)(=O)c1ccc(Cn2nc(C)c(C/C(F)=C/CN)c2C)cc1Cl [Compound 22, (Z)-4-((4-(4-amino-2-fluorobut-2-en-1-yl)-3,5-dimethyl-1H-pyrazol-1-yl)methyl)-2-chloro-N-methylbenzenesulfonamide hydrochloride]	> 10	> 30
CNS(=O)(=O)c1ccc(Cn2nc(C)c(C/C(F)=C/CN)c2C)c(C(F)(F)F)c1 [Compound 23, (Z)-4-((4-(4-amino-2-fluorobut-2-en-1-yl)-3,5-dimethyl-1H-pyrazol-1-yl)methyl)-N-methyl-3-(trifluoromethyl)benzenesulfonamide hydrochloride]	> 30	> 30
Cc1nn(Cc2ccc(S(C)(=O)=O)c(Cl)c2)c(C)c1C/C(F)=C/CN [Compound 24, (Z)-4-(1-(3-chloro-4-(methylsulfonyl)benzyl)-3,5-dimethyl-1H-pyrazol-4-yl)-3-fluorobut-2-en-1-amine hydrochloride]	> 30	> 30
Cc1nn(Cc2cc(F)c(S(=O)(=O)N(C)C)cc2F)c(C)c1C/C(F)=C/CN [Compound 25, (Z)-4-((4-(4-amino-2-fluorobut-2-en-1-yl)-3,5-dimethyl-1H-pyrazol-1-yl)methyl)-2,5-difluoro-N,N-dimethylbenzenesulfonamide hydrochloride]	> 30	> 30
